Where two headings read alike, the source gives them in different places.
What was measured:
Influenza A H1N1\WSN\33 = assay: microbe, parasite or virus in culture; type: cell-based, Influenza A virus; conditions: for EC50: read-out: EC50 by PRA
MDCK cells = assay: MTT cytotoxicity assay in MDCK cells; type: cell-based, canine; conditions: 24 hours incubation, concentrations tested 0 to 250 μM, read-out: TC50 in MDCK cells
Protocol: (§1) Cytotoxicity of Compounds 1-10 was measured by the 3-(4,5-dimethylthiazol-2-yl)-2,5-diphenyltetrazolium bromide (MTT, Sigma-Aldrich, USA) assay. The assay was performed by seeding Vero cells or MDCK cells at 20,000 cells/well in a total volume of 100 μl EMEM with 10% FBS in flat bottomed 96-well microtitre plates. After 24 hours of incubation, cells were washed twice with PBS and then replenished with fresh EMEM before the addition of the compounds. After the addition of the compounds, the cells were further incubated at 37° C. with 5% CO2 for 24 hours. MTT was added to each well to a final concentration of 0.5 mg/ml. The plates were further incubated at 37° C. with 5% CO2 for 4 hours. At the end of the incubation period, 100 μl of 10% of lauryl sulfate (SDS) in 0.01M of hydrochloric acid (HCl) was added to each well to solubilize the cells. After overnight incubation, the plates were read at 570 nm with 640 nm as the reference wavelength. The median toxic concentration, TC50, which represents the concentration of a compound required to reduce the MTT reading by 50%, was estimated from the MTT data.

Vero cells = assay: MTT cytotoxicity assay in Vero cells; type: cell-based; conditions: 24 hours incubation, concentrations tested 0 to 250 μM, read-out: TC50 in Vero cells
Protocol: as §1

[1] = MTT cytotoxicity assay in MDCK cells; type: cell-based, canine; conditions: dog, MDCK cells, 24 hours incubation, concentrations tested 0 to 250 μM, read-out: TC50 in MDCK cells
Protocol: as §1

[2] = MTT cytotoxicity assay in Vero cells; type: cell-based; conditions: African green monkey, Vero cells, 24 hours incubation, concentrations tested 0 to 250 μM, read-out: TC50 in Vero cells
Protocol: as §1

`Cc1onc(-c2ccc(O)cc2)c1C(=O)N1CCN(c2ccc([N+](=O)[O-])cc2Cl)CC1` [Compound 1, [4-(2-chloro-4-nitro-pheny1)-piperazin-1-yl]-[3-(4-hydroxy-pheny1)-5-methylisoxazol-4-yl]-methanone] showed an EC50 (Influenza A H1N1\WSN\33) of 0.05 µM, a CC50 (MDCK cells) of over 250 µM and a CC50 (Vero cells) of over 250 µM.

For `Cc1onc(-c2ccccc2)c1C(=O)N1CCN(c2ccc([N+](=O)[O-])cc2Cl)CC1` [Compound 2, [4-(2-chloro-4-nitro-phenyl)-piperazin-1-yl]-[3-phenyl-5-methyl-isoxazol-4-yl]-methanone], the “Selective Index (SI)” value (Influenza A H1N1\WSN\33) was over 4167, the EC50 (Influenza A H1N1\WSN\33; Influenza A virus, MDCK, 72 h) was 0.06 µM and the CC50 at 24 h [1] was over 250 µM. It also gave a CC50 at 24 h [2] of over 250 µM.

In the case of `Cc1onc(-c2ccc(N)cc2)c1C(=O)N1CCN(c2ccc([N+](=O)[O-])cc2Cl)CC1` [Compound 3, [4-(2-chloro-4-nitro-phenyl)-piperazin-1-yl]-[3-(4-amino-phenyl)-methylisoxazol-4-yl]-methanone], the “Selective Index (SI)” value (Influenza A H1N1\WSN\33) is reported as over 4464, the CC50 at 24 h [1] is reported as over 250 µM and the CC50 at 24 h [2] is reported as over 250 µM.

`Cc1onc(-c2ccc(N=[N+]=[N-])cc2)c1C(=O)N1CCN(c2ccc([N+](=O)[O-])cc2Cl)CC1` [Compound 4, [4-(2-chloro-4-nitro-pheny1)-piperazin-1-yl]-[3-(4-azido-pheny1)-5-methylisoxazol-4-yl]-methanone] gave an EC50 (Influenza A H1N1\WSN\33) of 0.25 µM, a CC50 (MDCK cells) of over 250 µM and a CC50 (Vero cells) of over 250 µM.

Compound `Cc1onc(-c2ccccc2Cl)c1C(=O)N1CCN(c2ccc([N+](=O)[O-])cc2Cl)CC1` [Compound 5, [4-(2-chloro-4-nitro-pheny1)-piperazin-1-yl]-[3-(2-chloro-phenyl)-5-methylisoxazol-4-yl]-methanone] has an EC50 (Influenza A H1N1\WSN\33) of 0.04 µM, a CC50 (MDCK cells) of over 250 µM and a CC50 (Vero cells) of over 250 µM.

In the case of `Cc1onc(-c2ccccc2Cl)c1C(=O)N1CCN(c2ccc([N+](=O)[O-])cc2Cl)CC1C` (centres unmarked) [Compound 6, [4-(2-chloro-4-nitro-phenyl)-2-methyl-piperazin-1-yl]-[3-(2-chloro-phenyl)-5-methyl-isoxazol-4-yl]-methanone], the “Selective Index (SI)” value (Influenza A H1N1\WSN\33) is reported as over 1190, the EC50 (Influenza A H1N1\WSN\33; Influenza A virus, MDCK, 72 h) is reported as 0.21 µM and the CC50 at 24 h [1] is reported as over 250 µM. It also gave a CC50 at 24 h [2] of over 250 µM.

For `Cc1onc(-c2ccccc2)c1C(=O)N1CCN(c2ccc([N+](=O)[O-])cc2Cl)CC1C` (centres unmarked) [Compound 7, [4-(2-chloro-4-nitro-phenyl)-2-methyl-piperazin-1-yl]-[3-phenyl-5-methylisoxazol-4-yl]-methanone], the “Selective Index (SI)” value (Influenza A H1N1\WSN\33) was over 313, the EC50 (Influenza A H1N1\WSN\33; Influenza A virus, MDCK, 72 h) was 0.8 µM and the CC50 at 24 h [1] was over 250 µM. For the same compound, the CC50 at 24 h [2] was over 250 µM.

In the case of `Cc1onc(-c2ccccc2Cl)c1C(=O)N1CCN(c2ccc([N+](=O)[O-])cc2)CC1` [Compound 8, [4-(4-nitro-pheny1)-piperazin-1-yl]-[3-(2-chloro-phenyl)-5-methyl-isoxazol-4-yl]-methanone], the EC50 (Influenza A H1N1\WSN\33) is reported as 5.1 µM, the CC50 (MDCK cells) is reported as over 250 µM and the CC50 (Vero cells) is reported as over 250 µM.

With `Cc1onc(-c2c(Cl)cccc2Cl)c1C(=O)N1CCN(c2ccc([N+](=O)[O-])cc2)CC1` [Compound 9, [4-(4-nitro-phenyl)-piperazin-1-yl]-[3-(2,6-dichloro-phenyl)-5-methyl-isoxazol-4-yl]-methanone] the “Selective Index (SI)” value (Influenza A H1N1\WSN\33) was over 21, the EC50 (Influenza A H1N1\WSN\33; Influenza A virus, MDCK, 72 h) was 12 µM and the CC50 at 24 h [1] was over 250 µM. For the same compound, the CC50 at 24 h [2] was over 250 µM.

With `Cc1onc(-c2ccccc2Cl)c1C(=O)N1CCN(c2c(Cl)cccc2[N+](=O)[O-])CC1` [Compound 10, [4-(2-nitro-6-chloro-phenyl)-piperazin-1-yl]-[3-(2-chloro-phenyl)-5-methyl-isoxazol-4-yl]-methanone] the “Selective Index (SI)” value (Influenza A H1N1\WSN\33) was over 10, the EC50 (Influenza A H1N1\WSN\33; Influenza A virus, MDCK, 72 h) was 25 µM and the CC50 at 24 h [1] was over 250 µM. The CC50 at 24 h [2] was over 250 µM.

Reference: US9212177B2, “Antiviral compounds and methods of making and using thereof” (Versitech Limited, priority 2009, dated 2015)
